# Assay results reported in patent US6924309B2 (Children, Youth and Women's Health Service Incorporated, priority 1999, dated 2005).
# Read-outs that look alike come from different tables or passages of the source.
# How the values were obtained:
# 12-LO = target: T1, 12-LO (Sus scrofa, UniProt P16469); assay: Effect on 12-LO catalysed oxidation of arachidonic acid; assay type: biochemical, porcine
# T1 construct: purchased Cayman Chemical Company
# T1 sequence (P16469 1-663): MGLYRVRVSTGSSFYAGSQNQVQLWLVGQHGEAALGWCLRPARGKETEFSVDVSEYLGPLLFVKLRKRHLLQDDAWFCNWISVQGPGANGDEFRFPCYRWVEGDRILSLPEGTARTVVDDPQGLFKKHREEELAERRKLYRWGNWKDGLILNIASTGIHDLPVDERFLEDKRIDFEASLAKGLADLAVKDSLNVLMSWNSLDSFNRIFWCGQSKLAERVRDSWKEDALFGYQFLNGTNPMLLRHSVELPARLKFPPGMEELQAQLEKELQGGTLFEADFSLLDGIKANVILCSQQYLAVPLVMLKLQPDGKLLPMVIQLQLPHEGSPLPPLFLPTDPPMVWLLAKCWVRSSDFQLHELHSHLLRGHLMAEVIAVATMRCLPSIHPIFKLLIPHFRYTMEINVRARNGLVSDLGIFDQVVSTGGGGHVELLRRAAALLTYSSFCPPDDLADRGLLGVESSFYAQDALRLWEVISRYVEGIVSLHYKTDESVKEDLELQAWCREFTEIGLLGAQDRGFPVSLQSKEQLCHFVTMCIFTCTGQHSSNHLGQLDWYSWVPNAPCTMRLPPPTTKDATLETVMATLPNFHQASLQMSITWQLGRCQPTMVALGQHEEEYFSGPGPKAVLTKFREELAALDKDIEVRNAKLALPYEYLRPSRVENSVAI
# TNF-α = TNF-α production by human peripheral blood leukocytes; assay type: cell-based; conditions: Leukocyte, stimulus S. aureus, read-out: % Inhibition (compared to control) of TNF-α
# Procedure: (§1) The effects of the nitroalkanes (Lx1-Lx5) on lymphocyte activation and cytokine production were examined. The ability of the PUFA to suppress mitogen-induced proliferation in response to PHA and S. aureus, and to inhibit cytokine production (TNFα and IFNγ), was assessed.
# [1] = system: Plasmodium falciparum isolates 3D7, FC27, K+; assay: Radiometric (3H-hypoxanthine) assay on asexual blood stages of P. falciparum; assay type: cell-based
# Procedure: Using the radiometric assay^(36), the effects of the Lx compounds were examined for antimalarial activity. The Plasmodium falciparum isolates used were 3D7, FC27, K^1 and K^+. These were maintained in human blood group O^+ erythrocytes essentially as described previously using RPM-1640 (HEPES modification) supplemented with 0.25% D-glucose, 0.2% Tess buffer (Sigma Chemical Co, Lt Louis, Mo.) and 10% heat inactivated (56° C., 20 min) human blood group AB serum. Cultures were maintained in tissue culture flasks (Corning, N.Y.) at 37° C. under an atmosphere of 1% 2, 5% CO2 in N2. P. falciparum cultures containing approximately 3.0:% parasitaemia were adjusted to 1×10^8 erythrocytes/ml. To 50 μl of the parasite-erythrocyte culture (5×10^6 erythrocytes) in wells of 96-well microdilution plates wvas added 50 μl of the designated concentration of fatty acid or equivalent amounts of solutions or media. The treated cultures were incubated at 37° C. for 4 h and then pulsed with 50 μl (2.5 μCi) of ^3H-hypoxanthine. After a further 18 h incubation the parasites-erythrocytes were harvested onto glass fibre filter papers using a cell harvester. The amount of radioactivity incorporated was measured in a β-counter. The results have been expressed as % inhibition of parasite growth i.e. the dpm in the fatty acid diluent−dpm in the fatty acid treated cultures/dpm in diluent×100.
# 5-LO = assay: Effect on 5-LO catalysed oxidation of arachidonic acid; assay type: biochemical
# IFN-γ = IFN-γ production by human peripheral blood leukocytes; assay type: cell-based; conditions: Leukocyte, stimulus PHA, read-out: % Inhibition (compared to control) of IFN-γ
# Procedure: as §1
# 15-LO = target: T2, 15-LO (Glycine max, UniProt P08170); assay: Effect on 15-LO catalysed oxidation of arachidonic acid; assay type: biochemical, soybean; conditions: for Ki: mixed inhibition pattern
# T2 construct: purchased Sigma Chemical Company
# T2 sequence (P08170 1-839): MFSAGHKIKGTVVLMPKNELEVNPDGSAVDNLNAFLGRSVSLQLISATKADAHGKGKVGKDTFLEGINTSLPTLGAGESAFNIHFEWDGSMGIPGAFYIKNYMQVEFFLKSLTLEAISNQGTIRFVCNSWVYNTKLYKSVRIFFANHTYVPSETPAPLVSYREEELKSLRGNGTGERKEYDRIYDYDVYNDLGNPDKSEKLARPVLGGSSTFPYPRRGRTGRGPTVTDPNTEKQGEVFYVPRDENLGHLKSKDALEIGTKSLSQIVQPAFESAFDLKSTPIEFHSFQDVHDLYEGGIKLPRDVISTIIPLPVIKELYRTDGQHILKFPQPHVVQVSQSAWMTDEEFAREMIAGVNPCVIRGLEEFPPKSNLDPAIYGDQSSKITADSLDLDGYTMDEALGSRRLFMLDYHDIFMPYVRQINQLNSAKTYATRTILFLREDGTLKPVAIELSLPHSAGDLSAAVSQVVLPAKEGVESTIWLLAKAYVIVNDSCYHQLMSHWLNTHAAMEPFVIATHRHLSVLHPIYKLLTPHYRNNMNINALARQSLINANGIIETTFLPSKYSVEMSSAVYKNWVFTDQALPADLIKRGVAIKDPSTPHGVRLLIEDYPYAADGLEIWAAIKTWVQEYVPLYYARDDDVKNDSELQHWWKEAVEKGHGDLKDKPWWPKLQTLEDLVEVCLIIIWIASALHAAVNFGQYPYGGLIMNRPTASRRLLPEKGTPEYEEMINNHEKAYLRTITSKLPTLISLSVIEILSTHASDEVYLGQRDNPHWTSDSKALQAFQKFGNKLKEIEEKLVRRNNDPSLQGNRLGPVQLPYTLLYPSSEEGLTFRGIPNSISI
# [2] = Reaction with tert-butyl hydroperoxide to the sulfoxide; assay type: physicochemical; conditions: CH2Cl2, RT, after 9 h
# Source text: To further investigate the possible involvement of hydroperoxide-induced sulfoxide formation in the antioxidant behaviour of the γ-thia and β-thia fatty acids 18, 19, 106, 108, 109 and 112, compounds 108 and 109 (in a ratio of 1:1 in CH2Cl2) were allowed to react with tert-butyl hydroperoxide. [drawing 37]
# The reaction was monitored by TLC and ^1H NMR analysis. […] The ^1H NMR spectrum of compound 114 contains two multiplets at δ2.88-3.07 and two doublets at δ3.63-3.86 corresponding to the methylene protons on the carbons adjacent to sulfur.
# [3] = Petri-dish thin film autoxidation of arachidonic acid with thia fatty acids and sulfides (HPLC)
# Procedure: A stock solution in dichioromethane (2 ml) containing arachidonic acid 1 (18 mg) and 3-[(3Z,6Z)-nona-3,6dienylthio]propionic acid 106 (18 mg) was prepared with lauric acid (18 mg) as an internal standard. Samples of the stock solution (100 μl) were added to glass Petri-dishes followed by ethanol (400 μl). After evaporation of the solvent, a well-distributed thin film was formed on each Petri-dish. The Petri-dishes were placed in a desiccator, which was then evacuated, filled with oxygen and stored in the darkness. Dishes were removed from the desiccator after 1, 2, 3, 5 and 7 days. The mixture on each dish was redissolved in diethyl ether and transferred to a 2 ml vial. After evaporation of the solvent, the residue was dissolved in the HPLC mobile phase (100 μl) and 10% of the solution was analysed by HPLC using a reverse phase column (octadecylsilane) (4.6 mm×250 mm, 3 μm) and a refractive index detector.
# Autoxidation of arachidonic acid was conducted in the presence of compound 19 and lauric acid. Stock solutions of arachidonic acid, compound 19 and lauric acid in dichloromethane with equal concentrations were added to a 25 ml round-bottomed flask, and the solvent was evaporated to leave a thin film on the internal surface of the flask. The flask was then filled with oxygen and kept in the dark. The percentages of arachidonic acid and compound 19 remaining after 7 days were measured by HPLC. The same assay was carried out simultaneously with several flasks but the results were not reproducible. The variation was attributed to differences in oxygen concentration and the surface area of the thin films formed in the flasks. Therefore, in order to establish a reproducible assay for the analysis of the autoxidation of arachidonic acid, Petri-dishes with uniform size (80 mm in diameter) were used instead of flasks for thin film formation and the oxidation was carried out by placing the Petri-dishes in a dessicator filled with oxygen. To assess this method, thin firms of arachidonic acid with lauric acid as a standard were prepared on six Petri-dishes using identical treatment, and then subjected to oxidation in the same dessicator filled with oxygen. After 24 h, the percentage of arachidonic acid recovered following autoxidation in each Petri-dish was determined by HPLC. […] The advantage of using a Petri-dish over a flask is that the thin films on each Petri-dish are spread over the same area, and each Petri-dish is exposed to oxygen to the same extent.
# Using the Petri-dish assay method, the effects of the thia PUFAs and sulfides 106 and 108-111, along with compounds 18, 19 and 3-[(Z,Z,Z)-(octadeca-9,12,15-trienylthio)] propionic acid 112 which were available in the laboratory, on the autoxidation of arachidonic acid, were examined. In addition, the stability of these compounds in the presence of arachidonic acid was also investigated. Arachidonic acid and lauric acid as a standard were mixed with each sulfur compound at different ratios and the mixtures were subjected to thin film autoxidation. The mixtures were analysed by HPLC after 1,2,3,5 and 7 days.
# Paw oedema = conditions: in vivo
# human neutrophils = assay: AA-enhanced chemiluminescence in human neutrophils; assay type: cell-based; conditions: neutrophils pretreated with compound
# Procedure: Arachidonic acid (AA) is a natural agonist which stimulates oxygen radical production in neutrophils leading to tissue damage during inflammation. Studies were conducted to examine whether or not the Lx compounds could antagonise the effects of AA. Neutrophils were pretreated with Lx compounds and then examined for chemiluminescence response to AA addition. […] The effect of Lx compounds on AA-enhanced chemiluminescence in human neutrophils is shown graphically in FIG. 11.
# [4] = ratio arachidonic acid:compound 1:1, 1 day
# [5] = ratio arachidonic acid:compound 1:1, 2 days
structure (smiles),measurement,setting,value
"CCCCC/C=C\C/C=C\C/C=C\C/C=C\CCCC[N+](=O)[O-] [Lx4, (a11-z)-1-Nitro-5,8,11,14-eicosatetraene]",Effect on 12-LO catalysed oxidation of AA,12-LO,Nil
same,inhibition at 20 µM,TNF-α,34%
same,"Antimalarial activity on P. falciparum 3D7 (FIG. 1, in words)",[1]; isolate 3D7,activity is lost
same,Effect on 5-LO catalysed oxidation of AA,5-LO,Nil
same,inhibition at 20 µM,IFN-γ,79.8%
same,Effect on 15-LO catalysed oxidation of AA,15-LO,Nil
"CCCCCCCCCCCCCCSCC(=O)O [Compound 109, 2-Tetradecylthioacetic acid]",Conversion to the sulfoxide by tert-butyl hydroperoxide,[2],55%
same,Antioxidant effect on autoxidation of arachidonic acid (in words),[3],not significantly inhibited
same,Arachidonic acid (%) recovered following autoxidation in the presence of the compound,[3]; [4],53%
same,Compound (%) recovered following autoxidation with arachidonic acid,[3]; [4],50%
same,Arachidonic acid (%) recovered following autoxidation in the presence of the compound,[3]; [5],10%
same,Compound (%) recovered following autoxidation with arachidonic acid,[3]; [5],16%
same,Compound (%) recovered following autoxidation with arachidonic acid,"[3]; ratio arachidonic acid:compound 1:1, 3 days",17%
same,Compound (%) recovered following autoxidation with arachidonic acid,"[3]; ratio arachidonic acid:compound 1:1, 5 days",17%
same,Compound (%) recovered following autoxidation with arachidonic acid,"[3]; ratio arachidonic acid:compound 1:1, 7 days",16%
"CC/C=C\C/C=C\C/C=C\CCCCCCCC[N+](=O)[O-] [Lx2, (z,z,z)-1-Nitro-9,12,15-octadecatriene]",inhibition at 20 µM,TNF-α,43.7%
same,Antimalarial activity (in words),[1],most promising
same,inhibition at 20 µM,IFN-γ,40.4%
same,Effect on 15-LO catalysed oxidation of AA,15-LO,Nil
"CCCCCCCCCCCCCCCCCC(CCC(=O)O)(CCC(=O)O)[N+](=O)[O-] [Lx8, 3-Heptadecyl-3-nitropentane-1,5-dicarboxylic acid]",Effect on 12-LO catalysed oxidation of AA,12-LO,Activatory
same,Effect on 12-LO catalysed oxidation of AA,12-LO; listed as 8a,Neither 8a nor 6a inhibits 12-LO
same,Effect on 5-LO catalysed oxidation of AA,5-LO,Nil
same,Effect on 15-LO catalysed oxidation of AA,15-LO,Inhibitory
same,Effect on 15-LO catalysed oxidation of AA,"15-LO; listed as 3-heptadecyl-3-nitropentane-1,5-dicarboxylic acid",selective inhibitors
same,Effect on 15-LO catalysed oxidation of AA,15-LO; listed as 8a,inhibitory effect
same,Ki,"15-LO; read-out: Ki, 15-LO catalysed oxidation of arachidonic acid",27.4 µM
same,Ki,"15-LO; read-out: Kl (second inhibitor constant; printed Ki in Table 3), 15-LO catalysed oxidation of arachidonic acid",55.2 µM
"CCCCCCCCCCCCCCCCCC(CCC(=O)O)[N+](=O)[O-] (stereo not shown) [Lx6, 4-Nitrohenicosanoic acid]",Effect on 12-LO catalysed oxidation of AA,12-LO,Activatory
same,Effect on 12-LO catalysed oxidation of AA,12-LO; listed as 6a,Neither 8a nor 6a inhibits 12-LO
same,Effect on 5-LO catalysed oxidation of AA,5-LO,Inhibitory
same,Effect on 5-LO catalysed oxidation of AA,5-LO; listed as 4-nitrohenicosanoic acid,selective inhibitors
same,Effect on 5-LO catalysed oxidation of AA,5-LO; listed as 6a,inhibiting 5-LO
same,IC50,"5-LO; read-out: IC50, 5-LO catalysed oxidation of AA",60 µM
same,Effect on 15-LO catalysed oxidation of AA,15-LO,Activatory
same,Effect on 15-LO catalysed oxidation of AA,15-LO; listed as 6a,not 15LO
"CCCCCCCCCCCCCCCCCC[N+](=O)[O-] [Lx1, 1-Nitrooctadecane]",Effect on 12-LO catalysed oxidation of AA,12-LO,Nil
same,Effect on 5-LO catalysed oxidation of AA,5-LO,Nil
same,Effect in paw oedema,Paw oedema,inflammatory
same,Effect on 15-LO catalysed oxidation of AA,15-LO,Nil
"CCCCC/C=C\C/C=C\C/C=C\C/C=C\CCCC(CCC(=O)O)(CCC(=O)O)[N+](=O)[O-] [Lx9, 3-[(a11-Z)-Nonadeca-4,7,10,13-tetraenyl] 4-nitroheptane-1,7-dicarboxylic acid]",Effect on 12-LO catalysed oxidation of AA,12-LO,Inhibitory
same,Effect on 12-LO catalysed oxidation of AA,"12-LO; listed as 3-(all-Z)-nonadeca4,7,10,13-tetraeny]-3-nitropertane-1,5-dicarboxylic acid",selective inhibitors
same,Effect on 12-LO catalysed oxidation of AA,12-LO; listed as 8b,significant inhibitory effect
same,Antimalarial activity (in words),[1],did not have appreciable antimalarial activity
same,Effect on 5-LO catalysed oxidation of AA,5-LO,Activatory
same,Inhibition of AA-stimulated oxygen radical production (chemiluminescence),human neutrophils,particularly evident
same,Effect on 15-LO catalysed oxidation of AA,15-LO,Nil
